Experimental data published in patent US7868135B2, “Compositions of lipopeptide antibiotic derivatives and methods of use thereof” (priority 2003, dated 2011).
Where two headings read alike, the source gives them in different places. Starred links: 1 amine or outer side, 2 acyl side, 3 side chain; linkers in the order of their positions; H or OH if unused. Positions of bridges follow the written chain, without caps; N, C: chain ends. Non-standard residues stand in square brackets, D forms with d. Residues, ends and D or L forms follow the SMILES beside them. ξ: configuration not given here. *: point of attachment. X18 = CC(NC(=O)/C=C/c1ccco1)C(N[*:1])C(=O)[*:2]; Propanoyl(3-SO2Ph) = O=C(CCS(=O)(=O)c1ccccc1)*; X29 = COCCOCCOCC(=O)NC(C)C(N[*:1])C(=O)[*:2]; ξAbu(βξ-NH2) = CC(N[*:3])C(N[*:1])C(=O)[*:2]; ξAbu(3ξ-NH-βAla) = CC(NC(=O)CCN)C(N)C(=O)O; X4 = CNCC(=O)NC(C)C(N[*:1])C(=O)[*:2]; Pentadecanoyl = CCCCCCCCCCCCCCC(=O)*; ξAsp(βξ-Me) = CC(C(=O)O)C(N)C(=O)O; X13 = O=C(CCCCCCCCCCOc1ccccc1)*; ξAbu(3ξ-NH2) = CC(N)C(N)C(=O)O; Octanoyl = CCCCCCCC(=O)*; Pip = O=C(O)[CH]1CCCCN1; Hexanoyl = CCCCCC(=O)*

Test system: Staphylococcus aureus (MSSA)
Procedure, shortened: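 Broth microdilution MIC per NCCLS M7-A6 with doubling serial dilutions, in cation-adjusted Mueller-Hinton broth supplemented with 0.625 mM calcium.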

MIC (24 h)	Structure (SMILES)	MIC (S. aureus (MSSA), CAMHB supplemented with 0.625 mM calcium, 24 hours at about 37° C., a range = compound tested multiple times)
>64 mg/L	CCCCCCCCCCCCCCC(=O)NC(CC(=O)O)C(=O)NC1C(=O)N2CCCCC2C(=O)NC(C(C)C(=O)O)C(=O)NC(CC(=O)O)C(=O)NCC(=O)NC(CC(=O)O)C(=O)NCC(=O)NC(C(C)NC(=O)CCCCCCCCCCCCCC)C(=O)NC(C(C)C)C(=O)N2CCCC2C(=O)NC1C (stereo not shown) [Compound 342, C15-Amphomycin-9-C15]	–
64 mg/L	CCCCCCCCCCCCCCC(=O)NC(CC(=O)O)C(=O)NC1C(=O)N2CCCCC2C(=O)NC(C(C)C(=O)O)C(=O)NC(CC(=O)O)C(=O)NCC(=O)NC(CC(=O)O)C(=O)NCC(=O)NC(C(C)NC(=O)COCCOCCOC)C(=O)NC(C(C)C)C(=O)N2CCCC2C(=O)NC1C (stereo not drawn) [Compound 343, C15-Amphomycin-9-([2-(2-Methoxy-Ethoxy)-Ethoxy]-Acetyl)] (Pentadecanoyl-D[ξAbu(βξ-NH2)][Pip][ξAsp(βξ-Me)]DGDG[X29]VP; lactam 2-C; configuration not given here)	–
>64 mg/L	CCCCCCCCCC(=O)N(C)CC(=O)NC(CC(=O)O)C(=O)NC1C(=O)N2CCCCC2C(=O)NC(C(C)C(=O)O)C(=O)NC(CC(=O)O)C(=O)NCC(=O)NC(CC(=O)O)C(=O)NCC(=O)NC(C(C)N)C(=O)NC(C(C)C)C(=O)N2CCCC2C(=O)NC1C (stereo not shown) [Compound 344, C10-Sar-Amphomycin]	–
64 mg/L	CCCCCCCCCCCCCC(=O)N(C)CC(=O)NC(CC(=O)O)C(=O)NC1C(=O)N2CCCCC2C(=O)NC(C(C)C(=O)O)C(=O)NC(CC(=O)O)C(=O)NCC(=O)NC(CC(=O)O)C(=O)NCC(=O)NC(C(C)N)C(=O)NC(C(C)C)C(=O)N2CCCC2C(=O)NC1C (stereo not shown) [Compound 345, C14-Sar-Amphomycin]	–
>64 mg/L	CCCCCCCC(=O)N(C)CC(=O)NC(CC(=O)O)C(=O)NC1C(=O)N2CCCCC2C(=O)NC(C(C)C(=O)O)C(=O)NC(CC(=O)O)C(=O)NCC(=O)NC(CC(=O)O)C(=O)NCC(=O)NC(C(C)N)C(=O)NC(C(C)C)C(=O)N2CCCC2C(=O)NC1C (stereo not shown) [Compound 346, C8-Sar-Amphomycin]	–
>64 mg/L	CCCCCCCCCCCCCCC(=O)NC(CC(=O)O)C(=O)NC1C(=O)N2CCCCC2C(=O)NC(C(C)C(=O)O)C(=O)NC(CC(=O)O)C(=O)NCC(=O)NC(CC(=O)O)C(=O)NCC(=O)NC(C(C)NC(=O)CCCCCCCCCCC)C(=O)NC(C(C)C)C(=O)N2CCCC2C(=O)NC1C (stereo not shown) [Compound 347, C15-Amphomycin-9-C12]	–
>64 mg/L	CCCCCCCCCCCCCCC(=O)NC(CC(=O)O)C(=O)NC1C(=O)N2CCCCC2C(=O)NC(C(C)C(=O)O)C(=O)NC(CC(=O)O)C(=O)NCC(=O)NC(CC(=O)O)C(=O)NCC(=O)NC(C(C)NC(=O)CCCCCCCCCCOc2ccccc2)C(=O)NC(C(C)C)C(=O)N2CCCC2C(=O)NC1C (stereo not drawn) [Compound 348, C15-Amphomycin-9-(11-Phenoxyundecanoyl)] (Pentadecanoyl-D[ξAbu(βξ-NH2)][Pip][ξAsp(βξ-Me)]DGDG[ξAbu(βξ-NH2)](X13)VP; lactam 2-C; configuration not given here)	–
64 mg/L	CCCCCCCCCCCCCCC(=O)NC(CC(=O)O)C(=O)NC1C(=O)N2CCCCC2C(=O)NC(C(C)C(=O)O)C(=O)NC(CC(=O)O)C(=O)NCC(=O)NC(CC(=O)O)C(=O)NCC(=O)NC(C(C)NC(=O)/C=C/c2ccco2)C(=O)NC(C(C)C)C(=O)N2CCCC2C(=O)NC1C (stereo not drawn) [Compound 349, C15-Amphomycin-9-(3-Furan-2-yl-Acryloyl)] (Pentadecanoyl-D[ξAbu(βξ-NH2)][Pip][ξAsp(βξ-Me)]DGDG[X18]VP; lactam 2-C; configuration not given here)	–
64 mg/L	CCCCCCCCCCCCCCC(=O)NC(CC(=O)O)C(=O)NC1C(=O)N2CCCCC2C(=O)NC(C(C)C(=O)O)C(=O)NC(CC(=O)O)C(=O)NCC(=O)NC(CC(=O)O)C(=O)NCC(=O)NC(C(C)NC(=O)CCS(=O)(=O)c2ccccc2)C(=O)NC(C(C)C)C(=O)N2CCCC2C(=O)NC1C (stereo not drawn) [Compound 350, C15-Amphomycin-9-(3-(Benzenesulfonyl)Propionoyl)] (Pentadecanoyl-D[ξAbu(βξ-NH2)][Pip][ξAsp(βξ-Me)]DGDG[ξAbu(βξ-NH2)](Propanoyl(3-SO2Ph))VP; lactam 2-C; configuration not given here)	–
–	CCCCCCCCCCCCCCC(=O)NC(CC(=O)O)C(=O)NC1C(=O)N2CCCCC2C(=O)NC(C(C)C(=O)O)C(=O)NC(CC(=O)O)C(=O)NCC(=O)NC(CC(=O)O)C(=O)NCC(=O)NC(C(C)NC(=O)CCCc2cc3ccc4cccc5ccc(c2)c3c45)C(=O)NC(C(C)C)C(=O)N2CCCC2C(=O)NC1C (stereo not shown) [Compound 351, C15-Amphomycin-9-(4-(Pyren-2-yl)Butyroyl)]	>64 mg/L
>64 mg/L	CCCCCCCCCCCCCCC(=O)NC(CC(=O)O)C(=O)NC1C(=O)N2CCCCC2C(=O)NC(C(C)C(=O)O)C(=O)NC(CC(=O)O)C(=O)NCC(=O)NC(CC(=O)O)C(=O)NCC(=O)NC(C(C)NC(=O)CCC(=O)O)C(=O)NC(C(C)C)C(=O)N2CCCC2C(=O)NC1C (stereo not shown) [Compound 352, C15-Amphomycin-9-Suc]	–
>64 mg/L	CCCCCCCCCCCCCCC(=O)NC(CC(=O)O)C(=O)NC1C(=O)N2CCCCC2C(=O)NC(C(C)C(=O)O)C(=O)NC(CC(=O)O)C(=O)NCC(=O)NC(CC(=O)O)C(=O)NCC(=O)NC(C(C)NC(=O)[C@@H]2CCCN2C(=O)[C@@H](N)CCCCN)C(=O)NC(C(C)C)C(=O)N2CCCC2C(=O)NC1C (stereo partly shown) [Compound 353, C15-Amphomycin-9-Pro-Lys]	–
>64 mg/L	CC(C)C1NC(=O)C(C(C)NC(=O)CCN)NC(=O)CNC(=O)C(CC(=O)O)NC(=O)CNC(=O)C(CC(=O)O)NC(=O)C(C(C)C(=O)O)NC(=O)C2CCCCN2C(=O)C(NC(=O)C(N)CC(=O)O)C(C)NC(=O)C2CCCN2C1=O (stereo not drawn) [Compound 355, Amphomycin-9-(β-Ala)] (H-D[ξAbu(βξ-NH2)][Pip][ξAsp(βξ-Me)]DGDG[ξAbu(3ξ-NH-βAla)]VP; lactam 2-C; configuration not given here)	–
>64 mg/L	CNCC(=O)NC(C)C1NC(=O)CNC(=O)C(CC(=O)O)NC(=O)CNC(=O)C(CC(=O)O)NC(=O)C(C(C)C(=O)O)NC(=O)C2CCCCN2C(=O)C(NC(=O)C(N)CC(=O)O)C(C)NC(=O)C2CCCN2C(=O)C(C(C)C)NC1=O (stereo not drawn) [Compound 356, Amphomycin-9-Sar] (H-D[ξAbu(βξ-NH2)][Pip][ξAsp(βξ-Me)]DGDG[X4]VP; lactam 2-C; configuration not given here)	–
>64 mg/L	CCCCCC(=O)NCC(=O)NC(CC(=O)O)C(=O)NC1C(=O)N2CCCCC2C(=O)NC(C(C)C(=O)O)C(=O)NC(CC(=O)O)C(=O)NCC(=O)NC(CC(=O)O)C(=O)NCC(=O)NC(C(C)N)C(=O)NC(C(C)C)C(=O)N2CCCC2C(=O)NC1C (stereo not drawn) [Compound 358, C6-Gly-Amphomycin] (Hexanoyl-GD[ξAbu(βξ-NH2)][Pip][ξAsp(βξ-Me)]DGDG[ξAbu(3ξ-NH2)]VP; lactam 3-C; configuration not given here)	–
>64 mg/L	CCCCCCCC(=O)NCC(=O)NC(CC(=O)O)C(=O)NC1C(=O)N2CCCCC2C(=O)NC(C(C)C(=O)O)C(=O)NC(CC(=O)O)C(=O)NCC(=O)NC(CC(=O)O)C(=O)NCC(=O)NC(C(C)N)C(=O)NC(C(C)C)C(=O)N2CCCC2C(=O)NC1C (stereo not drawn) [Compound 359, C8-Gly-Amphomycin] (Octanoyl-GD[ξAbu(βξ-NH2)][Pip][ξAsp(βξ-Me)]DGDG[ξAbu(3ξ-NH2)]VP; lactam 3-C; configuration not given here)	–
